Like-named read-outs stand apart in the source and are kept apart here.
Assays:
TNF-α = TNF-α inhibition in LPS-challenged human PBMC; format: cell-based; conditions: LPS 100 ng/mL, 20 hours
Procedure: (§1) Human PBMC cells were cultured and incubated with compounds listed in table-4 at 1 and 10 μM concentrations. Cells (1×10^6/mL) were challenged with lipopolysaccharides (LPS) at a concentration of (100 ng/mL) for 20 hours. Cell supernatant was analyzed for the presence of TNF-α, IL-1β and IL-6 cytokines by antibody directed enzyme-linked immunoassay.

3T3-L1 cells = test: Glucose uptake assay using 3T3-L1 cells; format: cell-based; conditions: for Stimulation Index: 1 μM, 72 hours, differentiated 3T3-L1 adipocytes, 14C deoxyglucose uptake, relative to BLX-1002
Procedure: 3T3-L1 cells were differentiated by the addition of differentiation cocktail (72 μg/ml insulin, 0.5 mM IBMX, 400 ng/ml Dexamethasone) for 4 days and later fed with media without differentation cocktail for 7-8 days. After differentiation the cells were incubated with the either reference compound BLX-1002 or compounds listed in the table 1 at 1 μM concentrations for 72 hours and carried out the glucose uptake assay for 10 min by the addition of KRP buffer supplemented with 2.5 μCi/ml ^14C deoxy glucose. Stimulation Index is defined as the amount of ^14C Deoxyglucose uptake induced by 1 μM of BLX-1002 incubated for 72 hrs in an assay condition as per protocol described above with differentiated 3T3-L1 adipocytes. Values of compounds mentioned in table-1 are with reference to stimulation index of reference compound BLX-1002.

IL-1β = IL-1β inhibition in LPS-challenged human PBMC; format: cell-based; conditions: LPS 100 ng/mL, 20 hours
Procedure: as §1

DPP IV = biological target: T1, DPP IV (Homo sapiens, UniProt P27487); test: DPP IV assay (human plasma as source, H-gly-pro AMC substrate); format: biochemical; conditions: compared to vehicle control
T1 construct: using human plasma as a source of DPP IV; from tissue; host or cells: human plasma
T1 sequence (P27487 39-766 limits assumed): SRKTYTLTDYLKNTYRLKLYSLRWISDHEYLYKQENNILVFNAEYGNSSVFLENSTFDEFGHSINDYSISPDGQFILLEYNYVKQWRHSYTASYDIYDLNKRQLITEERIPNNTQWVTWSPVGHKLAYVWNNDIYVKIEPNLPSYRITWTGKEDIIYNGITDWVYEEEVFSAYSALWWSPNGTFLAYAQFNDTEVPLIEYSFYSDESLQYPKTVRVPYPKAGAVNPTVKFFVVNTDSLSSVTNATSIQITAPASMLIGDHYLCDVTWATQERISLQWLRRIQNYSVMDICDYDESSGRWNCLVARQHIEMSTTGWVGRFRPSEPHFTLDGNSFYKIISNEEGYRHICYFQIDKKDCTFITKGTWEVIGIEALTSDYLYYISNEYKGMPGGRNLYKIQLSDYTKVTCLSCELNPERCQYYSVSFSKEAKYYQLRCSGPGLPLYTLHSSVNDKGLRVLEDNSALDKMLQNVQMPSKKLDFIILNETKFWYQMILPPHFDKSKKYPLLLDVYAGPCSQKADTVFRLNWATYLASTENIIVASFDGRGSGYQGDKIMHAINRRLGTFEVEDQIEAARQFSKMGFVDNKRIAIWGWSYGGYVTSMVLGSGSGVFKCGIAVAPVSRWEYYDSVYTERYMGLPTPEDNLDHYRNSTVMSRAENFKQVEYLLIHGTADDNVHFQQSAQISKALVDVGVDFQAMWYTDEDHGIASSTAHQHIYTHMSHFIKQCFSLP
Procedure: DPP IV assay is carried by using human plasma as a source of DPP IV. The compounds were incubated at a concentration of 1 and 10 μM in assay buffer containing DPP IV enzyme. The compounds were incubated for 1 hr and then the substrate H-gly-pro AMC was added and further incubated for 20 min and then the reaction was stopped on addition of 25% glacial acetic acid. The plates were read in a spectrofluorimeter to get RFU on setting excitation wavelength of 360 nm and emission wavelength of 460 nm. Percentage inhibition is calculated as compared to vehicle control.

HT-29 = test: Inhibition of colon cancer cell growth (MTS); format: cell-based; conditions: 10 μM, six days, MTS viability
Procedure: HT-29 is a colon cancer cell line and they were grown in 96 well plates with seeding concentration of 1000 cells/well. The cells were pretreated with compounds mentioned in FIG. 3 at 10 μM concentrations or taxol at 1 and 2.5 μM concentration or DMSO for six consecutive days. Every 48 hrs they were stained with MTS dye and viability was checked accordingly.

MCF-7 = test: Inhibition of breast cancer cell growth (MTS); format: cell-based; conditions: 10 μM, six days, MTS viability
Procedure: MCF-7 is a breast cancer cell line and they were grown in 96 well plates at 1000 cells/well. The cells were pretreated with compounds mentioned in FIG. 2 at 10 μM concentration or taxol at 1 and 2.5 μM concentration or DMSO for six consecutive days. Every 48 hrs they were stained with MTS dye and viability was checked accordingly.

3T3-L1 fibroblasts = test: Adipogenesis assay in 3T3-L1 (Oil-red-O staining); format: cell-based
Procedure: All known PPARγ agonists induce differentiation in fibroblast cells. The adipogenic potential of these compounds is correlated with their affinity to this receptor. To check quickly the affinity of compounds to these receptors, 3T3-L1 fibroblasts were treated with either DMSO control or rosiglitazone as positive control or the compounds at 1 μM concentration for several days. On day 13th, the differentiated adipocytes were stained with Oil-red-O (Sigma) and washed thoroughly to remove unbound stain and visualized under Olympus microscope. […] This is an indirect proof that example 78 have no affinity to PPARγ receptor.

[1] = system: streptozotocin induced diabetic mice; test: Antidiabetic activity in streptozotocin induced diabetic mice; format: in vivo, Swiss albino mice; conditions: Mus musculus, 168 h, 50 mg/kg oral, 7 days, plasma, compared to control group
Procedure: Swiss albino mice of either sex were used in the study at the age of 10 weeks. Diabetes was induced in animals by injecting streptozotocin by i.p. route at a dose of 200 mg/kg body weight. 48 hours after streptozotocin administration, the animals were kept for fasting for 6 hours and blood was collected and plasma separated and glucose was estimated. Animals showing greater than 200 mg/dl glucose levels were considered as diabetic and these animals were randomly distributed into various groups. The compounds listed in the table 3 were administered at a dose of 50 mg/kg body weight by oral route for 7 days. Later animals were fasted for 6 hours and blood was collected and plasma separated. Biochemical estimations like glucose, cholesterol and triglycerides were carried out using the plasma. The effect of compounds mentioned in the table was expressed in terms of percentage reduction in biochemical values as compared to control group.

Molecule: 5-(3-methoxy-4-{4-[(3-methyl-2-oxo-1,3-oxazolidin-4-yl)methyl]phenoxybenzylidene)-1,3-dihydro-2H-indol-2-one [Example 11]
- % Inhibition TNF alpha (TNF-α; 1 μM): 18.77%
- % Inhibition TNF alpha (TNF-α; 10 μM): 26.07%
- Stimulation Index (3T3-L1 cells): 1.12
- % Inhibition IL1beta (IL-1β; 1 μM): 17.10%

Molecule: CN1C(=O)OCC1Cc1ccc(Oc2ccc(/C=C3\C(=O)Nc4ccccc43)cc2C(F)(F)F)cc1 (stereo not shown) [Example 14]
- inhibition at 1 µM (TNF-α; Homo sapiens, PBMC, 1 μM, read-out: % Inhibition TNF alpha): 15.9%
- inhibition at 10 µM (TNF-α; Homo sapiens, PBMC, 10 μM, read-out: % Inhibition TNF alpha): 25.4%
- inhibition at 1 µM (DPP IV; 1 μM): 4.64%
- inhibition at 10 µM (DPP IV; 10 μM): 7.42%
- inhibition of colon cancer cell growth (HT-29): strong inhibitor
- inhibition at 10 µM (IL-1β; Homo sapiens, PBMC, 10 μM, read-out: % Inhibition IL1beta): 32.1%
- inhibition of breast cancer cell growth (MCF-7): strong inhibitor

Molecule: CN1CC(Cc2ccc(Oc3ccc(/C=C4/SC(=S)N(CC(=O)O)C4=O)cc3)cc2)OC1=O (stereo not shown) [Example 32, 3-methyl-5-(4-{4-[(E)-(3-aceticacid-4-oxo-2-thioxo-1,3-thiazolidin-5-ylidene)methyl]phenoxy}benzyl)-1,3-oxazolidin-2-one]
- Stimulation Index (3T3-L1 cells): 0.89

Molecule: CCN1C(=O)OCC1Cc1ccc(Oc2ccc(CC3SC(=S)NC3=O)cc2)cc1 (stereo not shown) [Example 78, 3-ethyl-4-(4-{4-[(4-oxo-2-thioxo-1,3-thiazolidin-5-yl)methyl]phenoxy}benzyl)-1,3-oxazolidin-2-one]
- glucose uptake activity (3T3-L1 cells; statement in words, table-1 assay): good glucose uptake activity
- adipogenesis (Oil-red-O staining) (3T3-L1 fibroblasts; 1 μM, stained on day 13): remained unchanged
- adipogenesis DRC, Oil-red-O staining (3T3-L1 fibroblasts; at tested concentrations): did not show significant staining
- affinity to PPARγ receptor (3T3-L1 fibroblasts; indirect proof from adipogenesis assay): no affinity
- inhibition in vivo at 50 mg/kg ([1]; read-out: % Reduction Cholesterol): 59%
- inhibition in vivo at 50 mg/kg ([1]; read-out: % Reduction Glucose): 45.4%
- inhibition in vivo at 50 mg/kg ([1]; read-out: % Reduction Triglycerides): 44.2%

Source: patent US20100305174A1, “Novel Heterocyclic Derivatives” (ORCHID RESEARCH LABORATORIES LIMITED, priority 2005, published 2010)
